“Also recorded” adds a separate entry of the source. Where two headings read alike, the source gives them in different places.
Key:
[1] = tested on: α5-GABAA receptor in central nervous system; details: in vivo, Jones et al. 2006; cited from earlier work
[2] = biological target: T1, Human recombinant α5-GABAA receptor (Homo sapiens, UniProt P18507+P31644); details: Jones et al. 2006; cited from earlier work
T1 construct: expressed in transfected cells; host or cells: 293 cell line

[3] = tested on: SNI model rats (neuropathic pain); test: Spared nerve injury (SNI) model, neuropathic pain, mechanical pain threshold; type: in vivo; details: rat; for Suppression of neuropathic pain (nociceptive threshold): 3 mg/kg injection, 0.5-24 hours after administration; for Suppression of neuropathic pain (nociceptive threshold) / Tolerance on continuous administration: 14 days after SNI; for Tolerance on continuous administration: continuous injection for 6 days, measured 1-3 hours after administration
Procedure, shortened: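 Male SD rats (200-250 g, n=6) with spared nerve injury (tibial and common peroneal ligated and cut, sural spared) were tested blind. Von Frey filaments (1-50 g) on the plantar paw gave the 50% withdrawal threshold. Compounds in 70% PEG400 were injected at 2-3 mg/kg; MRK016-M3 in 90% PEG400 was given orally at 0.3-10 mg/kg; unpaired t-test.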

[4] = biological target: T2, Human recombinant GABAA receptor containing α3 subunit (Homo sapiens, UniProt P18507+P34903); test: Electrophysiological inverse agonist efficacy on GABA-induced current; type: cell-based; details: change of GABA-induced current; negative = inhibition
T2 construct: expressed in transfected cells; host or cells: 293 cell line
Description: (§1) Different subunits of GABAA receptor were expressed in cell lines, including human kidney epithelial cell line, 293 cell line or L(tk−) cell line. The cells were cultured in medium, and such cells were used as the cellular model for screening drugs to suppress pain. a subunit, β subunit and γ subunit are indispensable for one complete functional GABAA receptor.
(d) simultaneously expressing α3 subunit (for the protein sequence, see GenBank accession number NM_000808.3), β3 subunit and γ2 subunit in 293 cell line, forming the GABAA receptor containing α3 subunit;
The inventors used electrophysiological methods to measure the inverse agonist efficacy of the substances to be measured, see the method described in literature (Ballard T M et al., RO4938581, a novel cognitive enhancer acting at GABAA alpha5 subunit-containing receptors. Psychopharmacology (Berl). 2009 January; 202 (1-3): 207-23). […] Many methods can be used by those skilled in the art to evaluate the binding capacity of the ligand of α5-GABAA receptor to the α5-GABAA receptor, including but not limiting to the method above.
Inverse agonist efficacy represents the inhibition percentage of the candidate substance on the current induced by GABA through α5-GABAA receptor=(the current intensity induced by GABA through α5-GABAA receptor with the existence of candidate substance−the current intensity induced by GABA through α5-GABAA receptor without the existence of candidate substance)/the current intensity induced by GABA through α5-GABAA receptor without the existence of candidate substance.

[5] = biological target: T3, Human recombinant GABAA receptor containing α2 subunit (α2, β3, γ2) (Homo sapiens, UniProt P18507+P47869); test: Competitive radioligand binding ([3H]Ro-0151788) on membranes of 293 cells, Ki; details: human recombinant GABAA subtype containing α2; read-out: Affinity, nM (α2)
T3 construct: expressed in transfected cells; host or cells: 293 cell line
Description: as §1
In this example, the inventors established the following cellular models:
(b) simultaneously expressing α1 subunit (GenBank accession number: NM_001127648.1), β3 subunit and γ2 subunit in 293 cell line, forming the GABAA receptor containing α1 subunit; • (c) simultaneously expressing α2 subunit (for the protein sequence, see GenBank accession number NM_000813.2), β3 subunit and γ2 subunit in 293 cell line, forming the GABAA receptor containing α2 subunit;
Each of the (a) to (d) above could form a GABAA receptor with complete function.
Then, the cellular membrane was extracted and the protein concentration was measured. The competitive binding of the substances to be measured and radiolabelled compounds (e.g. 1 nM [^3H]Ro-0151788) were detected respectively to calculate the Ki value of the substances to be measured, see the method described in literature (Ballard T M et al., RO4938581, a novel cognitive enhancer acting at GABAA alpha5 subunit-containing receptors. Psychopharmacology (Berl). 2009 January; 202(1-3): 207-23). If the binding inhibition constant Ki (nM) of α5-GABAA receptor with the candidate substances in experimental group is less than the Ki of the receptor containing other a subunit (α1 subunit, α2 subunit or α3 subunit), then the candidate substance is a potential drugs for preventing, relieving or treating pain. Many methods can be used by those skilled in the art to evaluate the binding capacity of the ligand of α5-GABAA receptor to the α5-GABAA receptor, including but not limiting to the method above.

[6] = human, Phase II, cited from earlier work
[7] = tested on: rat model of inflammatory and neuropathic pain; details: Munro G et al., Neuropharmacology 2011; cited from earlier work

Row | Compound | Binding to α5-GABAA receptor in brain / inhibition of (3H)Ro-15-1788 binding in center [1] | Inhibition rate of the binding of (3H)Ro-15-1788 in center [1] | Inverse agonist effect of α5-GABAA receptor [2] | Suppression of neuropathic pain, topical administration ([3]; 100 microliter (1 mg/ml) injected to the feet, 10 days after SNI) | Suppression of neuropathic pain (pain threshold) in rats injected with control siRNA ([3]; oral 3 mg/kg, control siRNA intrathecal, 3 mg/kg) | Suppression of neuropathic pain (pain threshold) in rats injected with siRNA specific to α5 subunit ([3]; oral 3 mg/kg, α5-specific siRNA intrathecal, 3 mg/kg) | Suppression of neuropathic pain (mechanical pain), dose-dependent experiment ([3]; oral 10 mg/kg, 3 mg/kg and 1 mg/kg, 10 to 20 days after SNI, 1 hour after administration) | Inverse agonist efficacy, % (α3) [4] | Ki [5] | Toxicity in Phase II clinical trial [6] | Toxicity in Phase II clinical trial ([6]; listed as A5I) | Suppression of neuropathic pain (nociceptive threshold) ([3]; 3 mg/kg) | Suppression of neuropathic pain (nociceptive threshold) ([3]; listed as A5I, 3 mg/kg) | Tolerance on continuous administration [3] | Tolerance on continuous administration ([3]; listed as A5I) | Effect on treating pain reported in literature [7]
1 | Cn1ncnc1COc1nn2c(-c3cc(CO)on3)nncc2c1C(C)(C)C [MRK016-M3, (3-(3-tert-butyl-2-((2-methyl-2H-1,2,4-triazol-3-yl)methoxy)pyrazolo [1,5-d][1,2,4]triazin-7-yl)isoxazol-5-yl)methanol] | not capable of binding the α5-GABAA receptor in brain; also recorded: cannot significantly inhibit; also recorded: could hardly enter into the brain | about 12% | significant inverse agonist effect | still efficiently suppressed | significantly suppressed neuropathic pain; also recorded: significantly increased the pain threshold | no obvious effect; also recorded: did not significantly increase the nociceptive threshold | significantly suppressed | −15% | – | – | – | – | – | – | – | –
2 | Cc1cc(-c2nnc3c4ccccc4c(OCC4=CC(C)C=N4)nn23)no1 (stereo not drawn) [α5IA] | – | – | – | – | – | – | – | 4% | 0.58 nM | certain toxic problems | renal toxicity | significantly suppressed neuropathic pain | efficiently suppressed neuropathic pain | did not generate tolerance response | did not produce tolerance | no effect

From patent publication US20150374705A1, “Substances for treatment or relief of pain” (Shanghai Institues for Biological Sciences, priority 2012, published 2015)
